How the values were obtained:
Assay type in all cases: cell-based, human
RXF 393 = test: NCI60 antitumor screening; conditions: Homo sapiens; 10 μM single dose; RXF 393 (renal cancer); read-out: growth inhibition percent (GI%)
RPMI-8226 = test: NCI60 antitumor screening; conditions: Homo sapiens; 10 μM single dose; RPMI-8226 (leukaemia); read-out: growth inhibition percent (GI%)
SN12C = test: NCI60 antitumor screening; conditions: Homo sapiens; 10 μM single dose; SN12C (renal cancer); read-out: growth inhibition percent (GI%)
SK-MEL-2 = test: NCI60 antitumor screening; conditions: Homo sapiens; 10 μM single dose; SK-MEL-2 (melanoma); read-out: growth inhibition percent (GI%)
NCI-H226 = test: NCI60 antitumor screening; conditions: Homo sapiens; 10 μM single dose; NCI-H226 (non-small cell lung cancer); read-out: growth inhibition percent (GI%)
SK-OV-3 = test: NCI60 antitumor screening; conditions: Homo sapiens; 10 μM single dose; SK-OV-3 (ovarian cancer); read-out: growth inhibition percent (GI%)
SNB-75 = test: NCI60 antitumor screening; conditions: Homo sapiens; 10 μM single dose; SNB-75 (CNS cancer); read-out: growth inhibition percent (GI%)
TK-10 = test: NCI60 antitumor screening; conditions: Homo sapiens; 10 μM single dose; TK-10 (renal cancer); read-out: growth inhibition percent (GI%)
SW-620 = test: NCI60 antitumor screening; conditions: Homo sapiens; 10 μM single dose; SW-620 (colon cancer); read-out: growth inhibition percent (GI%)
HS 578T = test: NCI60 antitumor screening; conditions: Homo sapiens; 10 μM single dose; HS 578T (breast cancer); read-out: growth inhibition percent (GI%)
HCC-2998 = test: NCI60 antitumor screening; conditions: Homo sapiens; 10 μM single dose; HCC-2998 (colon cancer); read-out: growth inhibition percent (GI%)
NCI60 cell lines panel = test: NCI60 antitumor screening, full panel; conditions: for One-dose activity over the NCI60 panel: 10 μM; for inhibition at 10 µM: Homo sapiens, 10 μM single dose, mean over NCI60 cell lines, read-out: Mean growth inhibition percent (GI%)
In short: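 Percent growth inhibition (GI%) was recorded for each of the NCI60 lines, spanning leukaemia, lung, colon, CNS, melanoma, ovarian, renal, prostate and breast cancers, after exposure to compounds at one concentration, 10 μM.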

IGROV1 = test: NCI60 antitumor screening; conditions: Homo sapiens, IGROV-1; 10 μM single dose; IGROV1 (ovarian cancer); read-out: growth inhibition percent (GI%)
MALME-3M = test: NCI60 antitumor screening; conditions: Homo sapiens; 10 μM single dose; MALME-3M (melanoma); read-out: growth inhibition percent (GI%)
HOP-92 = test: NCI60 antitumor screening; conditions: Homo sapiens; 10 μM single dose; HOP-92 (non-small cell lung cancer); read-out: growth inhibition percent (GI%)
COLO 205 = test: NCI60 antitumor screening; conditions: Homo sapiens; 10 μM single dose; COLO 205 (colon cancer); read-out: growth inhibition percent (GI%)
EKVX = test: NCI60 antitumor screening; conditions: Homo sapiens; 10 μM single dose; EKVX (non-small cell lung cancer); read-out: growth inhibition percent (GI%)
SNB-19 = test: NCI60 antitumor screening; conditions: Homo sapiens; 10 μM single dose; SNB-19 (CNS cancer); read-out: growth inhibition percent (GI%)
DU-145 = test: NCI60 antitumor screening; conditions: Homo sapiens, DU-145; read-out: growth inhibition percent (GI%)
UO-31 = test: NCI60 antitumor screening; conditions: Homo sapiens; 10 μM single dose; UO-31 (renal cancer); read-out: growth inhibition percent (GI%)
HOP-62 = test: NCI60 antitumor screening; conditions: Homo sapiens; 10 μM single dose; HOP-62 (non-small cell lung cancer); read-out: growth inhibition percent (GI%)
CAKI-1 = test: NCI60 antitumor screening; conditions: Homo sapiens; 10 μM single dose; CAKI-1 (renal cancer); read-out: growth inhibition percent (GI%)
MCF7 = test: NCI60 antitumor screening; conditions: Homo sapiens; 10 μM single dose; MCF7 (breast cancer); read-out: growth inhibition percent (GI%)
NCI-H522 = test: NCI60 antitumor screening; conditions: Homo sapiens; 10 μM single dose; NCI-H522 (non-small cell lung cancer); read-out: growth inhibition percent (GI%)
KM12 = test: NCI60 antitumor screening; conditions: Homo sapiens; 10 μM single dose; KM12 (colon cancer); read-out: growth inhibition percent (GI%)
ACHN = test: NCI60 antitumor screening; conditions: Homo sapiens; 10 μM single dose; ACHN (renal cancer); read-out: growth inhibition percent (GI%)
UACC-62 = test: NCI60 antitumor screening; conditions: Homo sapiens; 10 μM single dose; UACC-62 (melanoma); read-out: growth inhibition percent (GI%)
T-47D = test: NCI60 antitumor screening; conditions: Homo sapiens, T47D; 10 μM single dose; T-47D (breast cancer); read-out: growth inhibition percent (GI%)
OVCAR-8 = test: NCI60 antitumor screening; conditions: Homo sapiens; 10 μM single dose; OVCAR-8 (ovarian cancer); read-out: growth inhibition percent (GI%)
UACC-257 = test: NCI60 antitumor screening; conditions: Homo sapiens; 10 μM single dose; UACC-257 (melanoma); read-out: growth inhibition percent (GI%)
OVCAR-5 = test: NCI60 antitumor screening; conditions: Homo sapiens; 10 μM single dose; OVCAR-5 (ovarian cancer); read-out: growth inhibition percent (GI%)
NCI-H23 = test: NCI60 antitumor screening; conditions: Homo sapiens; 10 μM single dose; NCI-H23 (non-small cell lung cancer); read-out: growth inhibition percent (GI%)
HCT-15 = test: NCI60 antitumor screening; conditions: Homo sapiens; 10 μM single dose; HCT-15 (colon cancer); read-out: growth inhibition percent (GI%)
NCI-H322M = test: NCI60 antitumor screening; conditions: Homo sapiens; 10 μM single dose; NCI-H322M (non-small cell lung cancer); read-out: growth inhibition percent (GI%)

Row | SMILES | inhibition at 10 µM (RXF 393) [%] | inhibition at 10 µM (RPMI-8226) [%] | inhibition at 10 µM (SN12C) [%] | inhibition at 10 µM (SK-MEL-2) [%] | inhibition at 10 µM (NCI-H226) [%] | inhibition at 10 µM (SK-OV-3) [%] | inhibition at 10 µM (SNB-75) [%] | inhibition at 10 µM (TK-10) [%] | inhibition at 10 µM (SW-620) [%] | inhibition at 10 µM (HS 578T) [%] | inhibition at 10 µM (HCC-2998) [%] | inhibition at 10 µM (NCI60 cell lines panel) [%] | inhibition at 10 µM (IGROV1) [%] | inhibition at 10 µM (MALME-3M) [%] | inhibition at 10 µM (HOP-92) [%] | inhibition at 10 µM (COLO 205) [%] | inhibition at 10 µM (EKVX) [%] | inhibition at 10 µM (SNB-19) [%] | inhibition at 10 µM (DU-145) [%] | inhibition at 10 µM (UO-31) [%] | other results
1 | N#Cc1c(-c2ccc(F)cc2)nc(SCc2ccc([N+](=O)[O-])cc2)nc1N1CCNCC1 [4g, 4-(4-Fluorophenyl)-2-((4-nitrobenzyl)thio)-6-(piperazin-1-yl) pyrimidine-5-carbonitrile] | 15.2 | < 10 | < 10 | < 10 | < 10 | < 10 | 15.9 | < 10 | < 10 | < 10 | < 10 | < 10 | < 10 | < 10 | < 10 | < 10 | < 10 | < 10 | < 10 | 11.9 | One-dose activity over the NCI60 panel (NCI60 cell lines panel): inactive; inhibition at 10 µM (HOP-62): < 10%; inhibition at 10 µM (CAKI-1): 11%; inhibition at 10 µM (MCF7): < 10%; inhibition at 10 µM (NCI-H522): < 10%; inhibition at 10 µM (KM12): < 10%; inhibition at 10 µM (ACHN): < 10%; inhibition at 10 µM (UACC-62): < 10%; inhibition at 10 µM (T-47D): < 10%; inhibition at 10 µM (OVCAR-8): < 10%; inhibition at 10 µM (UACC-257): < 10%; inhibition at 10 µM (OVCAR-5): < 10%; inhibition at 10 µM (NCI-H23): < 10%; inhibition at 10 µM (HCT-15): < 10%; inhibition at 10 µM (NCI-H322M): < 10%
2 | Cc1ccc(CSc2nc(-c3ccc(F)cc3)c(C#N)c(N3CCN(C)CC3)n2)cc1 [4l, 4-(4-Fluorophenyl)-2-((4-methylbenzyl)thio)-6-(4-methylpiperazin-1-yl) pyrimidine-5-carbonitrile] | 42.4 | 15.5 | 11.9 | < 10 | < 10 | < 10 | 35.6 | < 10 | < 10 | 31.1 | < 10 | 11.2 | < 10 | 11.7 | 39.3 | < 10 | 12.5 | 14.3 | < 10 | 17.6 | One-dose activity over the NCI60 panel (NCI60 cell lines panel): moderate activity against numerous cell lines; inhibition at 10 µM (HOP-62): 12.8%; inhibition at 10 µM (CAKI-1): 36.9%; inhibition at 10 µM (MCF7): 12.8%; inhibition at 10 µM (NCI-H522): 33.4%; inhibition at 10 µM (KM12): < 10%; inhibition at 10 µM (ACHN): 29.9%; inhibition at 10 µM (UACC-62): 13%; inhibition at 10 µM (T-47D): 18.1%; inhibition at 10 µM (OVCAR-8): 11.9%; inhibition at 10 µM (UACC-257): < 10%; inhibition at 10 µM (OVCAR-5): < 10%; inhibition at 10 µM (NCI-H23): < 10%; inhibition at 10 µM (HCT-15): 10.3%; inhibition at 10 µM (NCI-H322M): 18%
3 | N#Cc1c(-c2ccc(F)cc2)nc(SCc2ccccc2)nc1N1CCN(c2ccccc2)CC1 [4m, 2-(Benzylthio)-4-(4-fluorophenyl)-6-(4-phenylpiperazin-1-yl) pyrimidine-5-carbonitrile] | < 10 | 14.2 | < 10 | < 10 | < 10 | < 10 | < 10 | < 10 | < 10 | < 10 | < 10 | < 10 | < 10 | < 10 | < 10 | < 10 | < 10 | < 10 | < 10 | < 10 | inhibition at 10 µM (HOP-62): < 10%; inhibition at 10 µM (CAKI-1): 10.7%; inhibition at 10 µM (MCF7): 16.1%; inhibition at 10 µM (NCI-H522): < 10%; inhibition at 10 µM (KM12): < 10%; inhibition at 10 µM (ACHN): < 10%; inhibition at 10 µM (UACC-62): 16.2%; inhibition at 10 µM (T-47D): 15.1%; inhibition at 10 µM (OVCAR-8): < 10%; inhibition at 10 µM (UACC-257): < 10%; inhibition at 10 µM (OVCAR-5): < 10%; inhibition at 10 µM (NCI-H23): < 10%; inhibition at 10 µM (HCT-15): 10.8%; inhibition at 10 µM (NCI-H322M): < 10%

Source: PMC10620772, “Design, synthesis, and biological evaluation of new pyrimidine-5-carbonitrile derivatives as novel anti-cancer, dual EGFR^WT/COX-2 inhibitors with docking studies” (RSC Advances, 2023)
